Laboratory results taken from publication PMC6213006, “Directed Evolution of a Homodimeric Laccase from Cerrena unicolor BBP6 by Random Mutagenesis and In Vivo Assembly” (International Journal of Molecular Sciences, 2018).

What was measured:
Test in all cases: ABTS oxidation at […] nm, Lineweaver-Burk, crude culture supernatant
Assay type in all cases: biochemical, Cerrena unicolor
[1] = tested on: LacA (parent-type αLacA, recombinant); conditions: 100 mM acetate pH 4.0, 30 °C, 10–1000 µM ABTS, air O2; RM1524
[2] = tested on: LacA (parent-type αLacA, recombinant); conditions: 100 mM acetate pH 4.0, 30 °C, 10–1000 µM ABTS, air O2; RM243
[3] = tested on: LacA (parent-type αLacA, recombinant); conditions: 100 mM acetate pH 4.0, 30 °C, 10–1000 µM ABTS, air O2; IVA205
[4] = tested on: LacA (parent-type αLacA, recombinant); conditions: 100 mM acetate pH 4.0, 30 °C, 10–1000 µM ABTS, air O2; RM811
[5] = tested on: LacA (parent-type αLacA, recombinant); conditions: 100 mM acetate pH 4.0, 30 °C, 10–1000 µM ABTS, air O2; RM1925
[6] = tested on: LacA (parent-type αLacA, recombinant); conditions: 100 mM acetate pH 4.0, 30 °C, 10–1000 µM ABTS, air O2
[7] = tested on: LacA (parent-type αLacA, recombinant); conditions: 100 mM acetate pH 4.0, 30 °C, 10–1000 µM ABTS, air O2; RM1307, expressed with leader mutations αN23I/αA75T
[8] = tested on: LacA (parent-type αLacA, recombinant); conditions: 100 mM acetate pH 4.0, 30 °C, 10–1000 µM ABTS, air O2; IVA264
[9] = tested on: LacA (parent-type αLacA, recombinant); conditions: 100 mM acetate pH 4.0, 30 °C, 10–1000 µM ABTS, air O2; RM1905
[10] = tested on: LacA (parent-type αLacA, recombinant); conditions: 100 mM acetate pH 4.0, 30 °C, 10–1000 µM ABTS, air O2; RM464
[11] = tested on: LacA (parent-type αLacA, recombinant); conditions: 100 mM acetate pH 4.0, 30 °C, 10–1000 µM ABTS, air O2; IVA189

CCn1c(=NN=c2sc3cc(S(=O)(=O)O)ccc3n2CC)sc2cc(S(=O)(=O)O)ccc21 [2,2′-azino-bis(3-ethylbenzothiazoline-6-sulfonic acid)]
Km [1]: 59.8 ± 2.2 µM | Km [2]: 64.8 ± 1.4 µM | Km [3]: 85.3 ± 0.3 µM | Km [4]: 168 µM | Km [5]: 79.8 ± 12.7 µM | Km [6]: 206 ± 11.6 µM | Km [7]: 67.5 ± 1.7 µM | Km [8]: 64 ± 2.5 µM | Km [9]: 147 ± 14.6 µM | Km [10]: 90.2 ± 3.4 µM | Km [11]: 69.8 ± 3.6 µM
